From US20130202629A1, “USES OF PHOSPHOLIPID CONJUGATES OF SYNTHETIC TLR7 AGONISTS” (The Regents of the University of California, priority 2010, published 2013)

Legend:
TLR7 = target: T1, TLR7 (Mus musculus, UniProt P58681); test: In vitro cytokine induction (TNF-alpha, IL-6, IL-12; ELISA) in murine macrophages: RAW264.7 cells and BMDM; format: cell-based; details: normalized to the molar level of the unconjugated agonist (SM)
T1 construct: BMDM were prepared from C57BL/6 and TLR7 deficient mice; endogenous in cells; host or cells: RAW264.7 (ATCC); bone marrow derived macrophages from C57BL/6 mice
T1 sequence (P58681 27-1050): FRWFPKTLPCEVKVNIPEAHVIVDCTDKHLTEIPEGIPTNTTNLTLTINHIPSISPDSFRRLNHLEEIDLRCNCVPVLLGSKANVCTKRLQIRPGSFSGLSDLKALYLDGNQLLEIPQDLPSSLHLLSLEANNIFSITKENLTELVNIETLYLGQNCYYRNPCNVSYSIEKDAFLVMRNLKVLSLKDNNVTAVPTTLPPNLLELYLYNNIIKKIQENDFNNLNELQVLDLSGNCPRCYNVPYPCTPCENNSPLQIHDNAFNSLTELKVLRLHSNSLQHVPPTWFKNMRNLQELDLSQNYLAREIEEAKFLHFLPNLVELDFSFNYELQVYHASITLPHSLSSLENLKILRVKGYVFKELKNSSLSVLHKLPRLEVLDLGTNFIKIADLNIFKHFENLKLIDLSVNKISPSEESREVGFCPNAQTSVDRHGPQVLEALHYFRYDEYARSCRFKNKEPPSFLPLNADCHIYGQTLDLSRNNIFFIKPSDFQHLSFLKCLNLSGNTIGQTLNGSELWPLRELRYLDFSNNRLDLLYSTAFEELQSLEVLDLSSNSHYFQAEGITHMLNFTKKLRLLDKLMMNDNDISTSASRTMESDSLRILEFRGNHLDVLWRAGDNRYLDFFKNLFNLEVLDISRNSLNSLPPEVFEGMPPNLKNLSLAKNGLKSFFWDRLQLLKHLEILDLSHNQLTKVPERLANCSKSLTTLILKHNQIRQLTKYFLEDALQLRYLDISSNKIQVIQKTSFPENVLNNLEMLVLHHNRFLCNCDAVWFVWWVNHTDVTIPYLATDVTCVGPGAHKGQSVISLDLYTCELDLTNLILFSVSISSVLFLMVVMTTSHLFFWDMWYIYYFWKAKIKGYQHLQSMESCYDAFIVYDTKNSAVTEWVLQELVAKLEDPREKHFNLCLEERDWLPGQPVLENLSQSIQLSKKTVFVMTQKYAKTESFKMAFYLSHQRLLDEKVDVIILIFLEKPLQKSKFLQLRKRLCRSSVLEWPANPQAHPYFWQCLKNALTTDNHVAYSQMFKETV
Procedure: In vitro measurements of cytokine induction were performed using the mouse leukemic monocyte macrophage cell line, RAW264.7. […] BMDM were prepared from C57BL/6 and TLR7 deficient mice as described in Wu, C. C et al., “Immunotherapeutic activity of a conjugate of a Toll-like receptor 7 ligand”, Proc. Natl. Acad. Sci. USA, 104:3990 (2007).
In general, RAW264.7 cells or BMDM were incubated with various concentrations of conjugates for 18 hours at 37° C., 5% CO2 and culture supernatants were collected. The levels of cytokines (IL-6, IL-12 or TNF-α in the supernatants were determined by ELISA (BD Biosciences Pharmingen, La Jolla, Calif.) (Cho, H. J et al., “Immunostimulatory DNA-based vaccines induce cytotoxic lymphocyte activity by a T-helper cell-independent mechanism” [see comments], Nat. Biotechnol., 18:509 (2000)), and the results presented in FIGS. 2A-D. Data are mean±SEM of triplicates and are representative of three independent experiments. Minimum detection levels of these cytokines were 15 pg/mL.
TNFα levels were measured (see FIG. 2A) by incubating approximately 1×10^6/mL RAW 264.7 cells with the various conjugates or controls, as described above. IL-6 and IL-12 levels were measured (see FIGS. 2B-D) by incubating 0.5×10^6/mL BMDM with the various conjugates or controls, as described above. […]

C57BL/6 mice = format: in vivo, mouse
Procedure: Anti-OVA antibodies of the IgG subclasses (and in some embodiments specifically IgG1 and IgG2) were measured by ELISA, as described in Cho, H. J et al., “Immunostimulatory DNA-based vaccines induce cytotoxic lymphocyte activity by a T-helper cell-independent mechanism” [see comments], Nat. Each ELISA plate contained a titration of a previously quantitated serum to generate a standard curve. The titer of this standard was calculated as the highest dilution of serum that gave an absorbance reading that was double the background. The various sera samples were tested at a 1:100 dilution. The results are expressed in units per mL, calculated based on the units/mL of the standard serum, and represent the mean±SEM of five animals in each group. * and T denote P<0.05 and P<0.01 by One-way ANOVA compared to the mice immunized with OVA mixed with vehicle, respectively.
Spleenocytes were prepared from the harvested spleens. […] The levels of IFNα in the culture supernatants were measured by ELISA (BD Bioscience PharMingen) as per the manufacturer's instructions (Kobayashi, H et al., Prepriming: a novel approach to DNA-based vaccination and immunomodulation”, Springer Semin. Immunopathol., 22:85 (2000)), and the results illustrated in FIG. 5C. Average total spleen cell number in each group were calculated and compared to the PBS-immunized groups to monitor the spleen cell proliferation. Data are mean±SEM of five mice and are representative of three independent experiments.
The efficiency of adjuvanticity was assessed by measurement of the levels and isotypes of the antigen-specific IgG that the vaccine induces, in particular IgG1 and IgG2 (Mosmann, T. R., and Coffman, R. L., ‘TH1 and TH2 cells: different patterns of lymphokine secretion lead to different functional properties’, Annual Review Immunology, 7:145 (1989)). […] ISS-ODN was used as a potent Th1 adjuvant positive control.

## CCCCCCCC/C=C\CCCCCCCC(=O)OCC(COP(=O)(O)OCCNC(=O)c1ccc(Cn2c(=O)[nH]c3c(N)nc(OCCOC)nc32)cc1)OC(=O)CCCCCCC/C=C\CCCCCCCC (stereo not shown) [Compound 6, 2-(4-((6-amino-2-(2-methoxyethoxy)-8-oxo-7H-purin-9(8H)-yl)methyl)benzamido)ethyl 2,3-bis(oleoyloxy)propyl phosphate]
TLR7
  potency as cytokine inducer relative to the unconjugated agonist: 10 fold
C57BL/6 mice; mouse, in vivo
  adjuvant activity when administered with the antigen ovalbumin: potent adjuvant
C57BL/6 mice; s.c. 20 μg OVA + 10 nmol conjugate on days 0 and 7
  earliest induction of OVA-specific antibodies of the IG subclass (FIG. 5A): 14 days
C57BL/6 mice; splenocytes of day 56 restimulated with OVA (FIG. 5C)
  OVA-specific IFN secretion by spleen cells: enhanced
